The values below come from US20230098438A1, “OXAZINE-BASED WATER-SOLUBLE FLUOROPHORE COMPOUNDS FOR IN VIVO NERVE IMAGING” (Oregon Health & Science University, priority 2020, published 2023).

Entries after “also recorded” stand apart in the source; their conditions may differ.

A short description of data set [1]: NOAEL (no-observed-adverse-effect-level).
Data set [2] in a line: Solubility testing in ultrapure water. Particulars: kinetic from dmso stock.
Experimental: Each compound was dissolved at high concentration (50 mg/mL) in dimethyl sulfoxide (DMSO) to create a stock solution. Stock solutions were spiked into ultrapure water beginning with a 50 μg/mL concentration and the aqueous solution was vortexed to mix. Resulting solutions were centrifuged at 15,000 rpm for 2 min and examined for a pellet or precipitation signifying insoluble compound.
Another data set relates to nerve tissue. To be noted: previous studies; fluorescence nerve imaging; cited from earlier work.
Where [3] appears, read: no-observed-adverse-effect-level.

Regarding “N-(7-(ethylamino)-8-methyl-3H-phenoxazin-3-ylidene)-2-(2-methoxyethoxy)-N-(2-(2-methoxyethoxy)ethyl)ethan-1-aminium [Example No. 8]”, in data set [1] (setting [3]), the “NOAEL” value was determined as 10 mg/kg. The same measure, in the same setting: with “(E)-N-ethyl-N-(7-(ethylamino)-8-methyl-3H-phenoxazin-3-ylidene)-2-(2-(2-methoxyethoxy)ethoxy)ethan-1-aminium [Example No. 7]” the figure was 5 mg/kg. `CCNc1cc2oc3cc(=[N+](CC)CC)ccc-3nc2cc1C` [Comparative Example No. 1, 3-(diethyl-λ4-azaneylidene)-N-ethyl-8-methyl-3H-phenoxazin-7-amine, reference compound] showed a solubility in data set [2] of 100 µg/mL. Moreover, the nerve specificity entry with nerve tissue was “high nerve specificity”. The molecule also displayed an NOAEL in data set [1] (in vivo) of 3 mg/kg. For the molecule “N-(7-(ethylamino)-8-methyl-3H-phenoxazin-3-ylidene)-2-methoxy-N-(2-methoxyethyl)ethan-1-aminium [Example No. 5]”, the no observed adverse effect level (NOAEL) in data set [1] (setting [3]) came to 4 mg/kg. As for `CCNc1cc2oc3cc(=[N+](CCOCCOCCOC)CCOCCOCCOC)ccc-3nc2cc1C` [Example No. 9, N-(7-(ethylamino)-8-methyl-3H-phenoxazin-3-ylidene)-2-(2-(2-methoxyethoxy)ethoxy)-N-(2-(2-(2-methoxyethoxy)ethoxy)ethyl)ethan-1-aminium], the solubility in data set [2] is more than 5000 µg/mL. Also, the no observed adverse effect level (NOAEL) in data set [1] (in vivo) turned out to be 30 mg/kg. In data set [2], `CCNc1cc2oc3c/c(=[N+](\CC)CCCS(=O)(=O)[O-])ccc-3nc2cc1C` [Example No. 1, (E)-3-(ethyl(7-(ethylamino)-8-methyl-3H-phenoxazin-3-ylidene)ammonio)propane-1-sulfonate] displayed a solubility of more than 5000 µg/mL. The NOAEL in data set [1] (in vivo) is 30 mg/kg. With `CC/N=c1/cc2oc3cc(NCC)c(C)cc3nc-2cc1C` [Oxazine 4], the nerve specificity result in the data set with nerve tissue is listed as “high nerve-specificity; also recorded: high nerve specificity”. Regarding “(E)-N^1-ethyl-N^1-(7-(ethylamino)-8-methyl-3H-phenoxazin-3-ylidene)-N^3,N^3,N^3-trimethylpropane-1,3-diaminium [Example No. 2]”, in data set [1] (setting [3]), the “NOAEL” value is listed as 2 mg/kg.
